Twelve compounds from patent EP1142587A1 (priority 1998, dated 2000) can be followed below.

The target of data set [1] is T1, dopamine D2 receptor (Rattus norvegicus, UniProt P61169).
T1 construct: A membrane fraction obtained from rat corpus striatum was prepared as a membrane fraction of a dopamine D2 receptor; from tissue; host or cells: rat corpus striatum membrane fraction
Briefly: biochemical. The format is binding.

For data set [2], the system named is Sprague-Dawley rats. Particulars: rat, in vivo.
In data set [3] the test system is mouse. The experiment in a line: Anti-dopamine action against apomorphine-induced climbing behavior. The format is in vivo. The conditions noted are these: for Wall climbing behavior: apomorphine (2mg/kg, s.c.) + test substance; for ED50: sc, apomorphine 2mg/kg s.c. 10 minutes after test drug, climbing measured from 20 minutes after apomorphine for 1 minute, read-out: ED50 value regarding anti-dopamine action. From the text:
The term "a compound having dopamine D2 receptor antagonist activity" is used herein to mean a compound showing a binding affinity in a D2 receptor membrane binding test, and also showing inhibiting effect to apomorphine-induced climbing behavior.
The administration of dopamine receptor agonists, apomorphine induces a continual climbing behavior in mice. A test for competitive action against this effect is generally used as a method for detecting the dopamine receptor antagonist. A mouse was put into a cylindrical wire gauze (10 cm diameter × 14cm height) and allowed to habituate itself with the circumstances for about 1 hour. Apomorphine (2mg/kg, s.c.) was administered to the mouse at 10 minutes after the administration of the test drug, and from 20 minutes after the administration of apomorphine, its climbing behavior (which means the period during which all four legs of the mouse have left from the ground) was measured for 1 minute. Furthermore, a sigmoid curve was determined from dose response by a method of least squares, and ED50 value was calculated.

Data set [4] has as its system Mice. The conditions noted are these: mouse, in vivo, ip.
In data set [5] the test system is ddY male mice. Briefly: animal or person. The format is in vivo. Particulars: Mus musculus, ip, 0.5 h, read-out: ED50 value regarding analgetic effect.

T1 sequence (P61169 whole entry): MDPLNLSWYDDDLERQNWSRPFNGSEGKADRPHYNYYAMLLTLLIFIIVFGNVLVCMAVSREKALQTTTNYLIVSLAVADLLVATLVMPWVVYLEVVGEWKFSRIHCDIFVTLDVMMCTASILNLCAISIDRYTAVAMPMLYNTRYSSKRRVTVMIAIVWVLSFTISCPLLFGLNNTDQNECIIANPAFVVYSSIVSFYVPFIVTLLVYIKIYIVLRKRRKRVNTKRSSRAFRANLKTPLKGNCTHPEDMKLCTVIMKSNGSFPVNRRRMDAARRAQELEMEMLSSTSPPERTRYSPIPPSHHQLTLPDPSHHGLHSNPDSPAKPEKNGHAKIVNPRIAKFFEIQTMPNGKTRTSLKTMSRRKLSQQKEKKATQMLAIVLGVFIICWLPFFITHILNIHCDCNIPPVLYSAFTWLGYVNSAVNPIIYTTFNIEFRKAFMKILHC

By Ki is commonly meant a measure of affinity in units of concentration, obtained from inhibition or displacement. A high value points to lower affinity. With `N=C1OC2(CCN(Cc3ccc(Cl)nc3)CC2)c2c1ccc1ccccc21` [Example 1, 1'-(6-chloro-3-pyridyl)methyl(benzo[g]1,3-dihydroisobenzofuran-1-spiro-4'-piperidine)-3-imine], in data set [1], the Ki is 230 nM.

On to `O=C1OC2(CCN(Cc3ccc(Cl)nc3)CC2)c2c1ccc1ccccc21` [Example 2, 1'-(6-chloro-3-pyridyl)methyl(benzo[g]1,3-dihydroisobenzofuran-1-spiro-4'-piperidine)-3-on], for which, in data set [1], the affinity corresponds to a Ki of 532 nM.

`O=C1OC2(CCN(Cc3ccc(Cl)nc3)CC2)c2cc3ccccc3cc21` [Example 3, 1'-(6-chloro-3-pyridyl)methyl(benzo[f]1,3-dihydroisobenzofuran-1-spiro-4'-piperidine)-3-on]: in data set [1], affinity was put at a Ki of 1590 nM.

As for `O=C1OC2(CCN(Cc3ccccc3)CC2)c2c1ccc1ccccc21` [Example 11, 1'-benzyl(benzo[g]1,3-dihydroisobenzofuran-1-spiro-4'-piperidine)-3-on], the Ki in data set [1] is 177 nM.

The term ED50 denotes the dose at which the effect has come halfway, by size or by number of responders. In the case of `COc1ccc(CN2CCC3(CC2)C(=O)NCN3c2ccccc2)cc1` [Example 14, 1'-(4-methoxybenzyl)-spiroimidazolidine-4,4'-piperidine-3-phenyl-5-on], in data set [2], the “position palatability (psychological dependence / aversive effect)” value is reported as “neither psychological dependence nor aversive effects”. Moreover, the inhibitory constant (Ki) in data set [1] is 20 nM. Moreover, in data set [3], the Wall climbing behavior result is on record as “inhibitory effect” and the ED50 is 2.22 mg/kg. Further, in data set [4], the “effect on locomotor activity” value is “no effect on locomotor activity”.

`O=C1NCN(c2ccccc2)C12CCN(Cc1ccc(Cl)nc1)CC2` [Example 15, 1'-(6-chloro-3-pyridyl)methyl-spiroimidazolidine-4,4'-piperidine-3-phenyl-5-on] yielded a Ki in data set [1] of 3.6 nM. For the same compound, in data set [3], the Wall climbing behavior result was “inhibitory effect” and the ED50 turned out to be 1.22 mg/kg. In addition, the “effect on locomotor activity” value in data set [4] was “no effect on locomotor activity”.

Turning to `Cc1ccc(CN2CCC3(CC2)C(=O)NCN3c2ccccc2)cn1` [Example 16, 1'-(6-methyl-3-pyridyl)methyl-spiroimidazolidine-4,4'-piperidine-3-phenyl-5-on], in data set [2], the “position palatability (psychological dependence / aversive effect)” value is recorded as “neither psychological dependence nor aversive effects”. The same compound displayed a Ki in data set [1] of 17 nM. In data set [3], the Wall climbing behavior entry is given as “inhibitory effect” and the ED50 came out at 11.9 mg/kg. Moreover, in data set [4], the “effect on locomotor activity” value is given as “no effect on locomotor activity”.

`O=C1NCN(c2ccccc2)C12CCN(Cc1cccnc1)CC2` [Example 17, 1'-(3-pyridyl)methyl-spiroimidazolidine-4,4'-piperidine-3-phenyl-5-on] had an inhibition constant (Ki) in data set [1] of 457 nM. The “effect on locomotor activity” value in data set [4] is given as “no effect on locomotor activity”.

Regarding `O=C1NCN(c2ccccc2)C12CCN(Cc1ccc(Br)cc1)CC2` [Example 18, 1'-(4-bromobenzyl)-spiroimidazolidine-4,4'-piperidine-3-phenyl-5-on], the Ki in data set [1] worked out at 5.7 nM. In data set [3], the Wall climbing behavior result was “inhibitory effect” and the ED50 came out at 1.05 mg/kg. Also, the “effect on locomotor activity” value in data set [4] is given as “no effect on locomotor activity”.

Compound `Cc1ccc(CN2CCC3(CC2)C(=O)NCN3c2ccccc2)cc1` [Example 23, 1'-(4-methylbenzyl)-spiroimidazolidine-4,4'-piperidine-3-phenyl-5-on] gave a Ki in data set [1] of 52 nM. In addition, in data set [3], the Wall climbing behavior result is given as “inhibitory effect” and the median effective dose (ED50) is 9.5 mg/kg. The “effect on locomotor activity” value in data set [4] is “no effect on locomotor activity”.

For `CN1CC[C@]23c4c5ccc(O)c4O[C@H]2[C@@H](O)C=C[C@H]3[C@H]1C5` [Morphine, reference compound], the “position palatability (psychological dependence / aversive effect)” value in data set [2] is listed as “strong rewarding effect”. Moreover, in data set [5], the 50% effective dose (ED50) was 13.7 mg/kg. In addition, the “effect on locomotor activity” value in data set [4] is reported as “strong locomotor activity promoting effect”.

As for `O=C1OC2(CCN(Cc3ccccc3)CC2)c2ccccc21` [Reference example 15, 1'-benzyl-spiro[benzodihydrofuran-1(3H),4'-piperidine)-3-on, reference compound], in data set [1], the Ki was above 1000 nM.
